From ChEMBL document CHEMBL4390686, “Design, Synthesis, and Pharmacokinetic Evaluation of Phosphate and Amino Acid Ester Prodrugs for Improving the Oral Bioavailability of the HIV-1 Protease Inhibitor Atazanavir” (J Med Chem, 2019)
Values after ≈ are worked out from the molar mass of the structure shown.

Key:
[1] = Tmax in cannulated Sprague-Dawley rat assessed as (R)-(5S,10S,11S,14S)-11-Benzyl-5,14-di-tert-butyl-3,6,13,16-tetraoxo-8-(4-(pyridin-2-yl)benzyl)-2,17-dioxa-4,7,8,12,15-pentaazaoctadecan-10-yl 2-Amino-3-methylbutanoate level at 3 mg/kg equiv of atazanavir administered orally by UPLC/MS/MS analysis; type: ADME, organism-based; details: in vivo, po
physchem [2] = details: 30% CH3CN/phosphate buffer, pH 6.5
Description: Half life in pH 6.5 30%CH3CN/phosphate buffer at 50 mM by RP-UPLC analysis

physchem [3] = details: HCl buffer, pH 1
Description: Aqueous solubility of the compound in pH 1 HCl buffer by RP-UPLC analysis

[4] = test system: Human immunodeficiency virus 1
Description: Antiviral activity against HIV1 NL4-3 infected in human MT2 cells assessed as reduction in viral yield measured after 4 days by EnduRen live cell substrate based luciferase reporter gene assay

physchem [5] = details: 30% CH3CN/acetate buffer, pH 4
Description: Half life in pH 4 30%CH3CN/acetate buffer at 50 mM by RP-UPLC analysis

Protease = Protease (Human immunodeficiency virus 1, UniProt Q9YQ12)
Description: Inhibition of HIV1 protease activity

[6] = rat, in vivo, po, 3 mg/kg
Description: AUClast in cannulated Sprague-Dawley rat assessed as atazanavir level at 3 mg/kg equiv of atazanavir administered orally by UPLC/MS/MS analysis

physchem [7] = details: acetate buffer, pH 4
Description: Aqueous solubility of the compound in pH 4 acetate buffer by RP-UPLC analysis

physchem [8] = details: 30% CH3CN/HCl buffer, pH 1
Description: Half life in pH 1 30%CH3CN/HCl buffer at 50 mM by RP-UPLC analysis

[9] = Cmax in cannulated Sprague-Dawley rat assessed as (R)-(5S,10S,11S,14S)-11-Benzyl-5,14-di-tert-butyl-3,6,13,16-tetraoxo-8-(4-(pyridin-2-yl)benzyl)-2,17-dioxa-4,7,8,12,15-pentaazaoctadecan-10-yl 2-Amino-3-methylbutanoate level at 3 mg/kg equiv of atazanavir administered orally by UPLC/MS/MS analysis; type: ADME, organism-based; set-up: dose 3 mg/kg, route oral; details: in vivo, po
[10] = rat, in vivo, po, 3 mg/kg; remark: listed apart in the source
physchem [11] = details: phosphate buffer, pH 6.5
Description: Aqueous solubility of the compound in pH 6.5 phosphate buffer by RP-UPLC analysis

[12] = rat, in vivo, po, 3 mg/kg; remark: listed apart in the source

Chain of Protease (Q9YQ12 whole entry): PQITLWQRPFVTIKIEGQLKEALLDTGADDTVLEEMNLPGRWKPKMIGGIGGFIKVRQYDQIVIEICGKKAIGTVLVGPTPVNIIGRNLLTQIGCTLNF

Tmax [1]: 0.021 days | half-life at 50000 µM (physchem [2]): > 20.8 days | solubility (physchem [3]): > 2400 µg/mL | EC50 [4]: 0.9 to 1250 nM | half-life at 50000 µM (physchem [5]): > 20.8 days | IC50 (Protease): 4 to 1140 nM | AUClast [6]: 0.053 µM·h | solubility (physchem [7]): > 2200 µg/mL | half-life at 50000 µM (physchem [8]): > 20.8 days | Cmax [9]: 1430 nM | Cmax [10]: 12 nM | solubility (physchem [11]): 820 µg/mL (≈ 908 µM) | Tmax [12]: 0.042 days
Compound: COC(=O)N[C@H](C(=O)N[C@@H](Cc1ccccc1)[C@H](CN(Cc1ccc(-c2ccccn2)cc1)NC(=O)[C@@H](NC(=O)OC)C(C)(C)C)OC(=O)[C@H](NC(=O)[C@H](N)C(C)C)C(C)C)C(C)(C)C
